Our source for the IC50, Ki and half-life values is ChEMBL document CHEMBL5584330, “Small Molecular Inhibitors That Target ATM for Drug Discovery: Current Research and Potential Prospective” (J Med Chem, 2024).

Molecules are shown by their SMILES. pIC50, pKi: −log10 of the molar value.

Data set [1] deals with U2OS. Nature of the data set: cells. The following applies: Homo sapiens.
Data set [2] has as its target Phosphatidylinositol 3-kinase catalytic subunit type 3 (Homo sapiens, UniProt Q8NEB9). Nature of the data set: Binding affinity to Vps34 (unknown origin) assessed as inhibition constant.
Data set [3] deals with T1, Serine-protein kinase ATM (Homo sapiens, UniProt Q13315). The data set can be described thus: Binding affinity to ATM (unknown origin) assessed as inhibition constant.
Another data set concerns MCF7. Nature of the data set: cells. The following applies: Homo sapiens.
Data set [4] concerns the target T1, Serine-protein kinase ATM. Nature of the data set: Inhibition of ATM (unknown origin).
The target of data set [5] is Serine/threonine-protein kinase mTOR (Homo sapiens, UniProt P42345). Nature of the data set: Inhibition of mTOR (unknown origin).
Data set [6] in a line: Inhibition of PI3K (unknown origin). More on the design: species or system Homo sapiens.
The next data set has as its system SW480. The data set can be described thus: Antiproliferative activity against human SW480 cells assessed as reduction in cell viability incubated for 72 hrs by MTT assay. In kind it is functional, cell-based. The following applies: SW480, 72 h.
The test system of data set [7] is U2OS. Nature of the data set: Cytotoxicity against human U2OS cells assessed as reduction in cell viability incubated for 48 hrs by MTT assay. In kind it is functional, cell-based. In general terms: Formazan colour is commonly taken as a measure of viable cells.
Data set [8] addresses Phosphatidylinositol 4,5-bisphosphate 3-kinase catalytic subunit alpha isoform (Homo sapiens, UniProt P42336). The data set can be described thus: Inhibition of PI3K alpha (unknown origin).
Data set [9] is described as follows: Half life in human liver microsomes. The class given is ADME, Microsome. Background: Liver microsomes are vesicles of endoplasmic reticulum, rich in cytochrome P450 enzymes.

T1 sequence (Q13315 whole entry): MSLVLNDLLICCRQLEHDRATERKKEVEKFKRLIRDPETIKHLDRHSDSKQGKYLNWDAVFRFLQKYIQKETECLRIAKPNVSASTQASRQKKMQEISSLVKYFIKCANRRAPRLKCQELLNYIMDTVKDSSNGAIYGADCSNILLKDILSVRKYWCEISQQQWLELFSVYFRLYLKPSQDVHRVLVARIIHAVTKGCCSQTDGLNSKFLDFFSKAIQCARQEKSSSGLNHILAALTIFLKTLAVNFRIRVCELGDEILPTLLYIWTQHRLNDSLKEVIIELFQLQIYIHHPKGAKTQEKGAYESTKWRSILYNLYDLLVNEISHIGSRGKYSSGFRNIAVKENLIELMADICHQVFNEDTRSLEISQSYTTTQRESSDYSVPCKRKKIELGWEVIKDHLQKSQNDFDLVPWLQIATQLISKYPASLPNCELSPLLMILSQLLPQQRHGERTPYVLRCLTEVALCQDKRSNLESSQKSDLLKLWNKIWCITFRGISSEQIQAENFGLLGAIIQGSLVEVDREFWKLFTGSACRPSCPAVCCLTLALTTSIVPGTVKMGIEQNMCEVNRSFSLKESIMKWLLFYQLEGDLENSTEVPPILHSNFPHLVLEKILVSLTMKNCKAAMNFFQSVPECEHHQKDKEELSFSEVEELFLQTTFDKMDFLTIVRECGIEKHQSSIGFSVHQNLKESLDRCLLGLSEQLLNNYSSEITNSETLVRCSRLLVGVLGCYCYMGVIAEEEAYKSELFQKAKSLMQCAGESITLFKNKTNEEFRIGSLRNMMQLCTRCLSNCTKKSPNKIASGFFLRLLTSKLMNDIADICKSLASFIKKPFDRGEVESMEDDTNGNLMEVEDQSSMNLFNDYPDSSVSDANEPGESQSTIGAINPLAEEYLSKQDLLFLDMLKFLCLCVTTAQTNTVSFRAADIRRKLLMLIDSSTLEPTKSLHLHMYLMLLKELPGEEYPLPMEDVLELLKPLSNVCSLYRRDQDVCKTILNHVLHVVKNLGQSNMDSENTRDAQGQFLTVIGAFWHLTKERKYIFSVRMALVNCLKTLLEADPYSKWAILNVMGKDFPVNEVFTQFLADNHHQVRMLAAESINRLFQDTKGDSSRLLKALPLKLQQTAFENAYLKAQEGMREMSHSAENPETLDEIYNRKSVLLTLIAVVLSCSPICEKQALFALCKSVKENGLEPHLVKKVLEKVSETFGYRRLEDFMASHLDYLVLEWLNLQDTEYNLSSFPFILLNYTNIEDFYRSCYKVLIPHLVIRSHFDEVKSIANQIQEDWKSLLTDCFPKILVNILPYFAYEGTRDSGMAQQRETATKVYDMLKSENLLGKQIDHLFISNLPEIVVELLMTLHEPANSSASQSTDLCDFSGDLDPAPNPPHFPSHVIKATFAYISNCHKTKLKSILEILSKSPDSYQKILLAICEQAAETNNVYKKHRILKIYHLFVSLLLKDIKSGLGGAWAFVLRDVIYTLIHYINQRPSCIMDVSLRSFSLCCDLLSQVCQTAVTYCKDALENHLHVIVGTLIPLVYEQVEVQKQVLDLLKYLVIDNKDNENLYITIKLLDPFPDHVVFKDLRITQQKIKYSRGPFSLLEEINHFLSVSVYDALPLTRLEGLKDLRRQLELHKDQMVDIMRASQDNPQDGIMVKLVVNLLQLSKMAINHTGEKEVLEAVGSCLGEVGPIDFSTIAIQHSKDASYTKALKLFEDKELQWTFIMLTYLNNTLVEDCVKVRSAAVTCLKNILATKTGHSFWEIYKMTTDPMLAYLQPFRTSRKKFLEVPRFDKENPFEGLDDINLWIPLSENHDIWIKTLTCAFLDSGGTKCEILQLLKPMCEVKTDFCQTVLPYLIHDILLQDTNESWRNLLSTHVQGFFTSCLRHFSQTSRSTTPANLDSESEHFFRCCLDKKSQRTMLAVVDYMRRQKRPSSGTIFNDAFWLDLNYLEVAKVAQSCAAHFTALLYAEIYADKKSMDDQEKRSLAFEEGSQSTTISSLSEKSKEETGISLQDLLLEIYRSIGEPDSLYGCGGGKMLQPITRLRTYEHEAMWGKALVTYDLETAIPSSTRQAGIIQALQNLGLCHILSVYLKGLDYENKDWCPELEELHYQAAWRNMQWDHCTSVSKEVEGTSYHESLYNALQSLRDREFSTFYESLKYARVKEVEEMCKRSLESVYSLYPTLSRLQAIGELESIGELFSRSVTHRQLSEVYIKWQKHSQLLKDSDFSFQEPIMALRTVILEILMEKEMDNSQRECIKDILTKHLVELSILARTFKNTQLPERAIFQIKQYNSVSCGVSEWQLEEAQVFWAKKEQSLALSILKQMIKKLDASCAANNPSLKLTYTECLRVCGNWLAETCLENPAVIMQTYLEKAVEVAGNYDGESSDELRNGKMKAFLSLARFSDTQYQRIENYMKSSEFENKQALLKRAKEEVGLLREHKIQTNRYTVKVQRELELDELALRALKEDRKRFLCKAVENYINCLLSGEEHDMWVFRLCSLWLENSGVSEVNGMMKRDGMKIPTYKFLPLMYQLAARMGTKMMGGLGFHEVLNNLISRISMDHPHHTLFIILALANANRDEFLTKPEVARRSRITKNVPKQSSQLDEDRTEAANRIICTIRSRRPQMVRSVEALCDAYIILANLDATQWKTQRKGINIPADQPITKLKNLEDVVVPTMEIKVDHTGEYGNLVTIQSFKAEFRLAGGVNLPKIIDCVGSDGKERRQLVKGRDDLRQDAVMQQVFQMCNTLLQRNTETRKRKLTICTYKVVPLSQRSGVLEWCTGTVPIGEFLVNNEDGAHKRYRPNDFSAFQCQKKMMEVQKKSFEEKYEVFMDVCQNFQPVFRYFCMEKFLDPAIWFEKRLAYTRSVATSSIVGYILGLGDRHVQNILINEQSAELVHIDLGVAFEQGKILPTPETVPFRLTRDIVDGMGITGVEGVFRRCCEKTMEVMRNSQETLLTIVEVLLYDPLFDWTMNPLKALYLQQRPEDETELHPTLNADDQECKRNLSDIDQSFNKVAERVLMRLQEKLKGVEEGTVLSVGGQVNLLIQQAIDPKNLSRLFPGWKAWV
Sequence of Phosphatidylinositol 3-kinase catalytic subunit type 3 (Q8NEB9 whole entry): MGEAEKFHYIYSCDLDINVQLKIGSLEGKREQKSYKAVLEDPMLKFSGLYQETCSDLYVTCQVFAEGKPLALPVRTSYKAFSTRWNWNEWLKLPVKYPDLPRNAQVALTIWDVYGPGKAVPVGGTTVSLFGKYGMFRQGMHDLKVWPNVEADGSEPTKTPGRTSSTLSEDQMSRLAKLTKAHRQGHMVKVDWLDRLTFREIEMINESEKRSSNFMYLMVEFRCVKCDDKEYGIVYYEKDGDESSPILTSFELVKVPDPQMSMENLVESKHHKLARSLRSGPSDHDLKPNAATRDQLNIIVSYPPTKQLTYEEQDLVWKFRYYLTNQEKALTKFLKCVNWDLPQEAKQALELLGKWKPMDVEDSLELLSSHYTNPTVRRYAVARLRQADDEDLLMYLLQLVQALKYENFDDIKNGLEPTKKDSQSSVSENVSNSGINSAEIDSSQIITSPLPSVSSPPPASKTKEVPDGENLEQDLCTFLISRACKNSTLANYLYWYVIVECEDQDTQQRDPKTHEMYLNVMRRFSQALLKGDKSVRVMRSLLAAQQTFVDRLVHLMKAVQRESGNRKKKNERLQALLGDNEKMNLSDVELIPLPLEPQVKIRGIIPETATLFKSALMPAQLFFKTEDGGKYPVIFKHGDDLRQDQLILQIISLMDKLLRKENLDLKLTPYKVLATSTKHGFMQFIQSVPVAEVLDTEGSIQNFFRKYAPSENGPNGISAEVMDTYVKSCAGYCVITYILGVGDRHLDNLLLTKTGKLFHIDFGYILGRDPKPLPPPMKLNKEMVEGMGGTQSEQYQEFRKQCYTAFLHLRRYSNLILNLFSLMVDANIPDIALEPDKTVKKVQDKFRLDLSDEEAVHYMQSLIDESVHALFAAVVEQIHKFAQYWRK
Sequence of Phosphatidylinositol 4,5-bisphosphate 3-kinase catalytic subunit alpha isoform (P42336 whole entry, canonical isoform): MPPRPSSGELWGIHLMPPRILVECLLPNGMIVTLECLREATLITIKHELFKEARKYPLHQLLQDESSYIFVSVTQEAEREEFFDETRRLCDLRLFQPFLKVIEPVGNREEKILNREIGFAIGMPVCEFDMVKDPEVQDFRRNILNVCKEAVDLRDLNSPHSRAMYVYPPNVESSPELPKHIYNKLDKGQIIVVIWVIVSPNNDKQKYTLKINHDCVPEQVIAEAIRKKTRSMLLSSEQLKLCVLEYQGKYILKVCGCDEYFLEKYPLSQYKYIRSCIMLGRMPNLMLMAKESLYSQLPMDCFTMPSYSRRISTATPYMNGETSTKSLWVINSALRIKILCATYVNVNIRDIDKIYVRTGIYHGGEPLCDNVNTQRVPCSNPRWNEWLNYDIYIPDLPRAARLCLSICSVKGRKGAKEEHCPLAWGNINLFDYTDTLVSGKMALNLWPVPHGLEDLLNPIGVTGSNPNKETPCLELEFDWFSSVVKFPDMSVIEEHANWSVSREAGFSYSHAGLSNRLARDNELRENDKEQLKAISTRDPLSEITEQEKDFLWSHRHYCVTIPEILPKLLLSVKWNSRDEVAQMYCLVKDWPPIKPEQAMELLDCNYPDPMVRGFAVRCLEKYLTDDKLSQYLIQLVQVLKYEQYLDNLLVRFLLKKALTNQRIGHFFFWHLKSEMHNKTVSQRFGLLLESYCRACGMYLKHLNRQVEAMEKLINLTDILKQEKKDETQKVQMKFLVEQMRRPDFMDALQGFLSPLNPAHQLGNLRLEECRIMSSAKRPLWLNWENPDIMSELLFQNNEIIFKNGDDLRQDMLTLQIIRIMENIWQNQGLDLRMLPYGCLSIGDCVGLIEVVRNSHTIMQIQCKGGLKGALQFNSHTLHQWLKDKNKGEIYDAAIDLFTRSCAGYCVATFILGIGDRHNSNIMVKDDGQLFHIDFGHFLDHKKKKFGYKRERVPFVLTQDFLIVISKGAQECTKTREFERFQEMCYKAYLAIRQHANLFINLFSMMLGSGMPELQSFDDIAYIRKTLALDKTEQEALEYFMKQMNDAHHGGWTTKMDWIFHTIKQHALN
Description for MCF7: Antiproliferative activity against human MCF7 cells assessed as reduction in cell growth

The pIC50 is the IC50 on a negative log10 scale, so that one unit is a factor of ten. Broadly, the pKi is the Ki on a negative log10 scale, so that one unit is a factor of ten. The compound `O=c1cc(N2CCOCC2)cc(N2C[C@@H]3C[C@@H]3[C@H]2Cc2ccccc2)[nH]1` had a pIC50 in the data set on U2OS [1] of 6.52. In addition, the pKi in data set [2] was 7.05; in [3] it was 8.70.

In the data set on MCF7, `COCCOc1cc2c(-n3cc(-c4ccccn4)nc3N)ncnc2cc1OC` gave a pIC50 of 5.92.

As for `C=C1C(=O)OCC1C(=O)N1Cc2cc3ccccc3nc2C1` (configuration not stated), the negative logarithm of the IC50 (pIC50) was 6.22 in [4] and 5.15 in data set [5].

Compound `COc1cc2ncnc(-n3cc(-c4ccccn4)nc3N)c2cc1OC` showed a pIC50 with MCF7 of 6.43.

In data set [6], `C[C@@H]1CN(CC(=O)Nc2ccc3c(c2)Cc2cccc(-c4cc(=O)cc(N5CCOCC5)o4)c2S3)C[C@H](C)O1` had a pIC50 of 8.22.

In the case of `CNC(=O)c1ccc(-c2cnc3cnc(-c4ccccc4)cn23)cc1`, the pIC50 in the data set on SW480 was 5.21.

`O=c1cc(N2CCOCC2)cc(N2CC3CC3[C@H]2Cc2ccccc2)[nH]1` (some centres not stated): in the data set on U2OS [1], the pIC50 was 5.47. Also, the pKi is 8.05 in [2] and 8.22 in data set [3].

Take `COc1ccc2c(c1)Cc1cccc(-c3cc(=O)cc(N4CCOCC4)o3)c1S2`: the values for the pIC50 (in the data set with U2OS [7]; in data set [8]) were 6.04 and 8.30, respectively.

Take `C[C@H]1CCN(c2nc(N3CCOCC3)cc(=O)[nH]2)[C@@H]1Cc1ccccc1`: the pIC50 with U2OS [1] is 7.05. The pKi in data set [2] is 8.22; in data set [3], 9.40.

For orientation: half-life means how long it takes for the measured level to halve. A higher half-life goes with slow loss. Take `CC(C)NC(=O)N(C)c1cnc2ccc(-c3ccc(OCCCN4CCCCC4)nc3)cc2n1`: the half-life in data set [9] was 12.8 h.

In data set [8], `CN1CCN(CCC(=O)Nc2ccc3c(c2)Sc2cccc(-c4cc(=O)cc(N5CCOCC5)o4)c2S3)CC1` gave a pIC50 of 8.52.

For the compound `O=c1cc(N2CCOCC2)cc(N2CCCCC[C@H]2Cc2ccccc2)[nH]1`, in the data set on U2OS [1], the pIC50 is 6.64. For the same compound, the figures for the pKi in data set [2] and in data set [3] were 7.30 and 9.00, respectively.
